Data as given in ChEMBL document CHEMBL1201862, “PubChem BioAssay data set” (2004).
Activity calls are given as the source filed them.

Columns and labels:
[1] = target: T1, E3 ubiquitin-protein ligase XIAP (Homo sapiens, UniProt P98170); assay: Counter Screen using XIAP-Bir3 for Chemical Antagonists of Bir1/2 domains of IAP-family anti-apoptotic proteins. [Related pubchem assays (depositor defined):AID1018, AID1449, AID1514, AID1638, AID1749, AID1750, AID488957, AID488963]
[2] = target: T1, E3 ubiquitin-protein ligase XIAP; assay: small molecules displacing peptide from XIAP – biochemical, IAP family, fluorescence polarization (AID 1018); assay type: functional
[3] = NIH-3T3 fibroblast cytotoxicity, dose response, cytotoxicity control, cell-based, fluorescence, Alamar Blue, secondary assay (AID 2327); assay type: functional;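 also: NIH-3T3 mouse fibroblasts cultured with fluconazole at 8 µg/mL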
[4] = fluconazole-exposed Candida albicans growth modulators – fluorescence, retest, confirmation (AID 2467); assay type: functional, cell-based
[5] = Trypanosoma cruzi growth suppression in host cells – NIH3T3 host cells, beta-gal luminescence, confirmation (AID 2044); assay type: functional, cell-based;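 also: intracellular parasites grown in NIH/3T3 mouse fibroblasts as host cells; luminescent beta-galactosidase reporter signal from transgenic T. cruzi replicating inside host cells; inhibitors lower the luminescence signal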
[6] = NIH3T3 cell viability loss – ATP luminescence, mouse fibroblasts, counter-screen, dose response (AID 2010); assay type: functional, cell-based;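 also: cells exposed to compound for about 90 hours before reading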
Exodeoxyribonuclease V = target: T2, Exodeoxyribonuclease V (Escherichia coli (strain K12), UniProt P04993+P07648+P08394); assay: RecBCD inhibition via phage-restricted bacterial growth – absorbance, V66 E. coli, mutant T4 phage, counter-screen for AddAB inhibitor project, dose response (AID 492957); assay type: functional, cell-based, Escherichia coli str. K-12 substr. MG1655
T2 sequence (P04993 whole entry): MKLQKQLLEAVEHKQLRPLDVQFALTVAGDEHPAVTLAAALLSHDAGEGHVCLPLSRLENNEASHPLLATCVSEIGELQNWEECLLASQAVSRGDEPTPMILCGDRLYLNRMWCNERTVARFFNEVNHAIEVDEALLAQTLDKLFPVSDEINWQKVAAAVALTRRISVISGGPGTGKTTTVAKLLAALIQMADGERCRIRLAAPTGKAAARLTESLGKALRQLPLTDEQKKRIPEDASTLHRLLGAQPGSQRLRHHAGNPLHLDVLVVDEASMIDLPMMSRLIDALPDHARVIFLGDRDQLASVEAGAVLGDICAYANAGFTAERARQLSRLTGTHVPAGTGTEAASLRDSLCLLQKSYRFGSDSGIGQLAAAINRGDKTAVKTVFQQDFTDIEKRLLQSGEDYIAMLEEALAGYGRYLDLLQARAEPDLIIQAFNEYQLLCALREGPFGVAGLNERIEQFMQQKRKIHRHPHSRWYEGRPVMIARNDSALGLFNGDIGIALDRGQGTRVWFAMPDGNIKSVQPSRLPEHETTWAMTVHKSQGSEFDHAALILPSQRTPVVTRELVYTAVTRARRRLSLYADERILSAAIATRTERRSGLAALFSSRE
T2 sequence (P07648 whole entry): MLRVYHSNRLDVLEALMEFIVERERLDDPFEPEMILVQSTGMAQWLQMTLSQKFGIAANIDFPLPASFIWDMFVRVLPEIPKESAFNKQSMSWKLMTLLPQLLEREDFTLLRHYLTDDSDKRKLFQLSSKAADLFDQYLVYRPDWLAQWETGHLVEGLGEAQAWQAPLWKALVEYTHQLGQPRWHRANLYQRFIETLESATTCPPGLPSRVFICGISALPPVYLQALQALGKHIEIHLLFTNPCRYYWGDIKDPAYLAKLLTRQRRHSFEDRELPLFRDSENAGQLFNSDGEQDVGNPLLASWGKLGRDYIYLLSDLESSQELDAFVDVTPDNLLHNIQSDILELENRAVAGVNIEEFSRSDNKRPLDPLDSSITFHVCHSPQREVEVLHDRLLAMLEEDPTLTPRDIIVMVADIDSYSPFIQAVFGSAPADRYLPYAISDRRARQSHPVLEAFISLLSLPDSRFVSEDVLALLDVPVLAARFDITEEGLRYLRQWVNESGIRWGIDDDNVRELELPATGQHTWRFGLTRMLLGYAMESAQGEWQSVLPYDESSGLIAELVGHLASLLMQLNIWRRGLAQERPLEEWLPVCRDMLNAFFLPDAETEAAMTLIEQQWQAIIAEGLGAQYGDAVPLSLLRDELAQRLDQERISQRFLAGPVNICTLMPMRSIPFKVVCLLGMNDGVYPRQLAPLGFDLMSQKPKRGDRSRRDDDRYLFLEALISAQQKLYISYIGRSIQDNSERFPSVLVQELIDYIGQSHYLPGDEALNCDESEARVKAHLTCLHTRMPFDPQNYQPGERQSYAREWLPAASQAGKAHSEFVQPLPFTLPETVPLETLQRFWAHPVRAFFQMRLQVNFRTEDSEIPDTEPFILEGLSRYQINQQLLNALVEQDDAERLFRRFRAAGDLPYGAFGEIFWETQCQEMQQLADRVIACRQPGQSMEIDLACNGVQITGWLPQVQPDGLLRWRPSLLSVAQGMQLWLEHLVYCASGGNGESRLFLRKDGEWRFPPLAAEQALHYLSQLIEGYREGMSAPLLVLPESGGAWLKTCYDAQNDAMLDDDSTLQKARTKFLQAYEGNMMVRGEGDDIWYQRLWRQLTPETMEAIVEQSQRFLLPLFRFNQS
T2 sequence (P08394 whole entry): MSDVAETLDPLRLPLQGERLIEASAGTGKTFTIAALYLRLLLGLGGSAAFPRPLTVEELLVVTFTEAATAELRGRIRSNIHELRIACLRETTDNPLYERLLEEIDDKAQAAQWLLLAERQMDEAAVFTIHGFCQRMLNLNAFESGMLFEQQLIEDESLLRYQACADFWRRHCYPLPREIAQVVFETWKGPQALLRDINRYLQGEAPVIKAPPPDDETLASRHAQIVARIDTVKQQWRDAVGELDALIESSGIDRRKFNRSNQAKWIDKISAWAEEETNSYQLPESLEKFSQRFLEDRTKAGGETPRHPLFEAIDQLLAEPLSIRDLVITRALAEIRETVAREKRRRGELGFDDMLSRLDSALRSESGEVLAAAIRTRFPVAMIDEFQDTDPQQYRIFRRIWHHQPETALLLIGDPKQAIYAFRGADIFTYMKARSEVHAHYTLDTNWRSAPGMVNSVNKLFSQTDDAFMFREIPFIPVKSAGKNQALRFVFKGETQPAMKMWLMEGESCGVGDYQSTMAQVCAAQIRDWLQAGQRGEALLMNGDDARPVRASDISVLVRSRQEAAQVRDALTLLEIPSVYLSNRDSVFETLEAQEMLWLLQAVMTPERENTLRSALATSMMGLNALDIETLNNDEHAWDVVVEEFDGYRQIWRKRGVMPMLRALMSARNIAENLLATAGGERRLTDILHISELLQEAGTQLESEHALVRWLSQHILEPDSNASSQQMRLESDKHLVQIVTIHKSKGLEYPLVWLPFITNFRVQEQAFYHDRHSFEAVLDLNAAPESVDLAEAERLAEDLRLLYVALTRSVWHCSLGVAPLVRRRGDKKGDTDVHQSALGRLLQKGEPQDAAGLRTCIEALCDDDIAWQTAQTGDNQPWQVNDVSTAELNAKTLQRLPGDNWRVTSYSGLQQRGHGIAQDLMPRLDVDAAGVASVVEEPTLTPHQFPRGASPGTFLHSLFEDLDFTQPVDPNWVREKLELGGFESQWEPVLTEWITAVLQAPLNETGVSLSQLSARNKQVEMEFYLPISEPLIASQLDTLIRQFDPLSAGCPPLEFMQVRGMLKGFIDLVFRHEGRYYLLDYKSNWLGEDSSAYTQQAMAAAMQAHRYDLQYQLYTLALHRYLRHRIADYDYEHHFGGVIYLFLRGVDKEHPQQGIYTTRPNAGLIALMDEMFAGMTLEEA

[7] = Counterscreen for AddAB inhibitors: absorbance-based bacterial cell-based high throughput dose response assay for inhibitors of bacterial viability. [Related pubchem assays (depositor defined):AID435030, AID449728, AID449731, AID488942, AID488955, AID488956]; assay type: functional
HEK293 [8] = assay: inhibition of NOD1-driven NF-kB reporter – cell-based, luminescence, uHTS, primary screen (AID 1578); assay type: functional; settings: Homo sapiens
[9] = tested on: Streptococcus sp. 'group A'; assay: Streptococcus pyogenes SK(-)GAS viability under kanamycin – luminescence, BacTiterGlo, confirmation, counter-screen for streptokinase expression inhibitor project, dose response (AID 1900); assay type: functional, organism-based
HEK293 [10] = assay: cells; assay type: functional, cell-based; settings: Homo sapiens
HEK293 [11] = assay: cells; assay type: functional, cell-based; settings: Homo sapiens; remark: listed apart in the source
HEK293 [12] = assay: NOD2 signaling inhibitors in MDP-stimulated cells, cell-based, uHTS, luminescence (AID 2001); assay type: functional; settings: Homo sapiens
Streptococcus = assay: GAS UMAA2166 growth inhibition – luminescence, BacTiterGlo, counter-screen for streptokinase expression inhibitor project, dose response (AID 1915); assay type: functional, organism-based;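 also: potency for reduction of bacterial viability or growth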
[13] = blockers of CRF-binding protein–CRF-R2 complex – cell-based, uHTS hits, 384-well, dose response (AID 651639); assay type: functional, Homo sapiens; settings: read-out: IC50_Mean
HEK293 [14] = assay: cells; settings: Homo sapiens
[15] = target: Intestinal-type alkaline phosphatase (Mus musculus, UniProt P24822); assay: PubChem AID 488785; assay type: functional
[16] = target: T3, Alkaline phosphatase, tissue-nonspecific isozyme (Homo sapiens, UniProt P05186); assay: TNAP enzyme inhibition by screening hits, dose response, selectivity assay for mouse IAP inhibitor project, biochemical, human TNAP, uHTS hits (AID 488906); assay type: functional
T3 sequence (P05186 whole entry): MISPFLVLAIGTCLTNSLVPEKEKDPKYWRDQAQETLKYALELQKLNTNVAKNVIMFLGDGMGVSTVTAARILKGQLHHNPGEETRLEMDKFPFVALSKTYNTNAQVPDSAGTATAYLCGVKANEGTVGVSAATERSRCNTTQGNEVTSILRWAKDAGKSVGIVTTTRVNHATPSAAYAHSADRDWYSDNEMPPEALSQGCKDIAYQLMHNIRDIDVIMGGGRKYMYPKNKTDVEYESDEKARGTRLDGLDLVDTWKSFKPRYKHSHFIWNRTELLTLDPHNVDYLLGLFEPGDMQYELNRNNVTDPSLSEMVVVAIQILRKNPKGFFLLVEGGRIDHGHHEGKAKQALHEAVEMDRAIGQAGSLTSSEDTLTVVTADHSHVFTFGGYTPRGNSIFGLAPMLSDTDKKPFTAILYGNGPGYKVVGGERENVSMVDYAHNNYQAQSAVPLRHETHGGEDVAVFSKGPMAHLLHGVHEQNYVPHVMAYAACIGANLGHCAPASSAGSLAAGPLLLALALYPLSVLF

[17] = target: Intestinal-type alkaline phosphatase (Homo sapiens, UniProt P09923); assay: inhibition of human intestinal alkaline phosphatase – biochemical, dose response (AID 488876); assay type: functional
[18] = luciferase reporter signal suppression in cells – H4 neuroglioma cells, luminescence, dose response (AID 1990); assay type: functional, cell-based
[19] = Luminescence Cell-Based Dose Response HTS to Identify Inhibitors of 5'UTR Stem-Loop Driven Prion Protein mRNA Translation in H4 Neuroglioblastoma Cells. [Related pubchem assays: 1827 (Project Summary), 1813 (Primary HTS)]; assay type: functional
[20] = alpha-synuclein stem-loop luciferase translation blockers – H4 neuroglioma cells, luminescence, confirmation (AID 1988); assay type: functional, cell-based
cells [21] = assay type: functional, cell-based
cells [22] = assay type: functional, cell-based; remark: listed apart in the source
[23] = target: Heat shock protein HSP 90-alpha (Homo sapiens, UniProt P07900); assay type: functional, organism-based
INS1 = assay: INS-1E survival protection against cytokine death – cell-based, luminescence, retest, dose response (AID 449756); assay type: functional; settings: Rattus norvegicus;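 also: cell death triggered by IL-1 beta plus TNF-alpha plus IFN-gamma mixture; protective hits raise ATP signal compared with cytokine alone wells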
[24] = HGIII-sPLA2 enzyme inhibition potency – biochemical, QFRET, IC50, dose response (AID 743457);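 also: green fluorescence rise as the enzyme cleaves BODIPY PC-A2 in liposomes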

T1 sequence (P98170 whole entry): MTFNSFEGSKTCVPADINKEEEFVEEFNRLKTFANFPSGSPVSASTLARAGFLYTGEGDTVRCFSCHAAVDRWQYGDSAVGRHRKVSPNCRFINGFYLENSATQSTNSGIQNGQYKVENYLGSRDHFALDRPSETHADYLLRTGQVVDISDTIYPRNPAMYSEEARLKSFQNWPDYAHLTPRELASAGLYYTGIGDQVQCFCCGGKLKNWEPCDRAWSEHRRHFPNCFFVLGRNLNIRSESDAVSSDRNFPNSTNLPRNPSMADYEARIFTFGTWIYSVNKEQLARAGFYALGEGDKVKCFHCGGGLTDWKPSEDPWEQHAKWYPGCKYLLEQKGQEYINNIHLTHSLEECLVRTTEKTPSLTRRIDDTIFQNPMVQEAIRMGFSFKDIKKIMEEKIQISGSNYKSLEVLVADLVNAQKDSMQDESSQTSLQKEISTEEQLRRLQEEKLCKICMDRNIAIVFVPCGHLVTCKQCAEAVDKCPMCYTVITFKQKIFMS
Sequence of Intestinal-type alkaline phosphatase (Homo sapiens, UniProt P09923) (P09923 whole entry): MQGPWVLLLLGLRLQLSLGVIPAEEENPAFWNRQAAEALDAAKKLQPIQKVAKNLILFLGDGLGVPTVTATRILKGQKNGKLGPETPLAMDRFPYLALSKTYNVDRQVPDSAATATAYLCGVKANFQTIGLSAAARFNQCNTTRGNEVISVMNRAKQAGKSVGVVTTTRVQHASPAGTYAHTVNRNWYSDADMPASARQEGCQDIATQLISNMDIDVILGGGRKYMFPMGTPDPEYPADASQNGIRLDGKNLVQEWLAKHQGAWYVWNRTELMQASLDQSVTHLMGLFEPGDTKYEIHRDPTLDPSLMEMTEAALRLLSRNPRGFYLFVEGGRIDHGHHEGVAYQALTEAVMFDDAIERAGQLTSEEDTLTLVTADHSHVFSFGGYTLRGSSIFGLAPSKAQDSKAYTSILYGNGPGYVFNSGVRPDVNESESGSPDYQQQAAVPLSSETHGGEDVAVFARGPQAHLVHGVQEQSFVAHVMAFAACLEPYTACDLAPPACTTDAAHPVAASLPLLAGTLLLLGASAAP
Sequence of Intestinal-type alkaline phosphatase (Mus musculus, UniProt P24822) (P24822 whole entry): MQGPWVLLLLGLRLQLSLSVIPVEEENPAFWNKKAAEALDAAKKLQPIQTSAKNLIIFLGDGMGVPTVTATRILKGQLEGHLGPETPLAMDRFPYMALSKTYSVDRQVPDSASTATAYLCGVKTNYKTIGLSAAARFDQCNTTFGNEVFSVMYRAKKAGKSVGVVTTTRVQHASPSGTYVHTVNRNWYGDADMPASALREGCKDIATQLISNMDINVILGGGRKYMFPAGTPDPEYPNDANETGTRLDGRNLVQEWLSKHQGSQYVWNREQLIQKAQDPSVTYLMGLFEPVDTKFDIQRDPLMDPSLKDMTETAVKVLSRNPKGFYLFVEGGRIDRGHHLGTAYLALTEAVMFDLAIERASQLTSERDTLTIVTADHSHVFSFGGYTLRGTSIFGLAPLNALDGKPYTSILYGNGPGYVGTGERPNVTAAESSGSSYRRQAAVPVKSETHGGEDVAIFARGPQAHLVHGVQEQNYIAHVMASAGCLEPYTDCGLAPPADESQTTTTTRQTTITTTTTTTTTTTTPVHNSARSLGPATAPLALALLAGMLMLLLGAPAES

With `CC(C)C(c1nnnn1C(C)(C)C)N1CCC(Cc2ccccc2)CC1` (centres undefined) the IC50 [1] was > 100 µM (inactive) and the IC50 [2] was > 100 µM (not active).
In the case of `C=CCc1cccc(/C=N/NC(=O)CNc2ccccc2OC)c1O`, the EC50 [3] was > 160 µM (inactive), the EC50 [4] was > 38 µM (not active) and the EC50 [5] was 2.01 µM (active). The EC50 [6] was 7.37 µM (active), the IC50 (Exodeoxyribonuclease V) was > 119 µM (inactive) and the IC50 [7] was > 119 µM (inactive).
In the case of `CCN(CC)S(=O)(=O)c1cccc(C(=O)c2c(C)cc3ccccn23)c1`, the IC50 [1] was > 100 µM (inactive) and the IC50 [2] was > 100 µM (not active).
With `Cc1ccc(SCc2cc(O)nc(SCC(=O)Nc3cc(Cl)ccc3Cl)n2)cc1` the EC50 (HEK293 [8]) was 6.75 µM (active), the EC50 [9] was 9.13 µM (active) and the IC50 (HEK293 [10]) was > 20 µM (inactive). The IC50 (HEK293 [11]) was > 20 µM (inactive), the IC50 (HEK293 [12]) was 9.47 µM (inactive) and the EC50 (Streptococcus) was 38.5 µM (active). The IC50 [13] was > 20 µM (inactive) and the IC50 (HEK293 [14]) was > 20 µM (inactive).
In the case of `O=C(NCCCCc1ccccc1)NC[C@@H]1CC[C@@H](Cc2ccc(-c3ccccc3)cc2)O1`, the IC50 [15] was 2.6 µM (active), the IC50 [16] was 15.6 µM (active) and the IC50 [17] was 2.1 µM (active).
In the case of `O=C(Nc1cccc(-c2cccc(Cl)c2)c1)C1CCN(C2CCC2)CC1`, the IC50 [15] was 9.39 µM (active), the IC50 [16] was 11.8 µM (active) and the IC50 [17] was 8.64 µM (active).
With `Cc1ccc(CN2C3CCCC2CC(NC(=O)Nc2cccc(F)c2)C3)cc1` (centres undefined) the IC50 [15] was 9.9 µM (active), the IC50 [16] was 63.3 µM (active) and the IC50 [17] was > 100 µM (inactive).
With `O=C(c1cc(-n2cnnc2)ccc1Cl)N1CCN(c2nc(-c3ccccc3)cs2)CC1` the EC50 [18] was > 30 µM (not active), the EC50 [19] was 15.1 µM (active) and the EC50 [20] was > 120 µM (not active). For the same compound, the IC50 [1] was > 100 µM (inactive) and the IC50 [2] was > 100 µM (not active).
In the case of `CCCCC(=O)NC(c1cccs1)c1cc(Cl)c2cccnc2c1O` (centres undefined), the EC50 (cells [21]) was 57.5 µM (active), the EC50 (cells [22]) was > 350 µM (not active) and the IC50 (Exodeoxyribonuclease V) was > 119 µM (inactive). The IC50 [7] was > 119 µM (inactive), the AC50 [23] was 3.6 µM (active) and the AC50 (INS1) was 1.19 µM (active). The IC50 [24] was > 122 µM (inactive).
